The results in this text go back to PMC2425470 (Nucleic Acids Research, 2008).

The target of test [1] is T1, CF Im25 (25 kDa subunit of human cleavage factor Im; CPSF5; NUDT21) (Homo sapiens, UniProt O43809). The experiment in a line: steady-state tryptophan fluorescence titration. The class given is binding.
Test [2] has as its target T1, CF Im25 (25 kDa subunit of human cleavage factor Im; CPSF5; NUDT21). Put plainly: […] Å crystal structure. The test is classed as binding.

The structures appear in SMILES notation.

T1 sequence (O43809 whole entry): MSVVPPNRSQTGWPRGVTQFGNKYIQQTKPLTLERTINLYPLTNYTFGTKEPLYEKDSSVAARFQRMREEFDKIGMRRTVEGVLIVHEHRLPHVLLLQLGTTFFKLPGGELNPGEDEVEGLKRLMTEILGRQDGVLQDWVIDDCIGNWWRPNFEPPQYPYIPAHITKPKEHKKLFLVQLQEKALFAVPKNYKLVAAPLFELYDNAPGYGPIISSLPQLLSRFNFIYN

For orientation: Kd means the constant that tells how readily two partners part at equilibrium. High values mean a looser complex, low ones a tighter complex. The compound `Nc1ncnc2c1ncn2[C@@H]1O[C@H](COP(=O)(O)OP(=O)(O)OP(=O)(O)O)[C@@H](O)[C@H]1O` [ATP] returned a dissociation constant Kd in test [1] of 1530 ± 180 µM.
With `Nc1ncnc2c1ncn2[C@@H]1O[C@H](COP(=O)(O)OP(=O)(O)OP(=O)(O)OP(=O)(O)OC[C@H]2O[C@@H](n3cnc4c(N)ncnc43)[C@H](O)[C@@H]2O)[C@@H](O)[C@H]1O` [Ap4A], in test [2], the Kd is 2.44 ± 0.49 µM.
